Here are results for two molecules from patent publication US20150238477A1, “Method of Treating Lung Adenocarcinoma” (EXELIXIS, INC., priority 2012, published 2015).

Where only a bound is given, the exact number is not on record here.

In one data set the test system is TT xenograft tumors. The experiment in a line: TT xenograft tumor growth. It counts as in vivo, nu/nu mice. As to conditions: oral once daily, 21 days. How it is done:
(§1) Nu/nu mice bearing TT tumors were orally administered once daily water vehicle (□) or cabozantinib at 3 mg/kg (∇), 10 mg/kg (◯), 30 mg/kg (♦), or 60 mg/kg (⋄) for 21 days. Tumor weights were determined twice weekly. Data points represent the mean tumor weight (in milligrams) and SE for each treatment group. Circulating calcitonin levels were determined in serum preparations from whole blood collected after the final indicated doses (* indicates a significant, P <0.05, reduction in circulating calcitonin when compared to serum samples from vehicle-treated control animals).

In a further data set the test system is AKT and ERK. Briefly: phosphorylation of AKT and ERK in TT xenograft tumors in vivo. The arrangement: species or system mice. The following applies: single 100-mg/kg oral dose. The protocol:
Levels of phosphorylated and total RET and were determined in pooled lysates by Western immunoblot analysis. In a separate study, mice bearing TT tumors were administered a single oral dose of cabozantinib (100 mg/kg) or water vehicle, and levels of phosphorylated and total RET, AKT, and ERK in tumor lysates were determined at the indicated time points post dose. Densitometric quantitation of the duration of inhibition of phosphorylation of RET versus plasma concentrations of cabozantinib. Representative Western blot images are shown. […] This effect was reversible as RET phosphorylation returned to basal levels by 48 hours after treatment as depicted in FIG. 1C.

Data set [1] addresses T1, KIF5B-RET fusion-positive NSCLC (Homo sapiens, UniProt P07949).
T1 construct: expression of variant 1 transcripts (KIF5B exon 15; RET exon 12); endogenous in cells; host or cells: lung adenocarcinoma cells of the patient (pleural effusion cells); the other entry of the earlier key: KIF5B (P33176, Kinesin-1 heavy chain)
T1 sequence (P07949 with tags, fused parts or gaps): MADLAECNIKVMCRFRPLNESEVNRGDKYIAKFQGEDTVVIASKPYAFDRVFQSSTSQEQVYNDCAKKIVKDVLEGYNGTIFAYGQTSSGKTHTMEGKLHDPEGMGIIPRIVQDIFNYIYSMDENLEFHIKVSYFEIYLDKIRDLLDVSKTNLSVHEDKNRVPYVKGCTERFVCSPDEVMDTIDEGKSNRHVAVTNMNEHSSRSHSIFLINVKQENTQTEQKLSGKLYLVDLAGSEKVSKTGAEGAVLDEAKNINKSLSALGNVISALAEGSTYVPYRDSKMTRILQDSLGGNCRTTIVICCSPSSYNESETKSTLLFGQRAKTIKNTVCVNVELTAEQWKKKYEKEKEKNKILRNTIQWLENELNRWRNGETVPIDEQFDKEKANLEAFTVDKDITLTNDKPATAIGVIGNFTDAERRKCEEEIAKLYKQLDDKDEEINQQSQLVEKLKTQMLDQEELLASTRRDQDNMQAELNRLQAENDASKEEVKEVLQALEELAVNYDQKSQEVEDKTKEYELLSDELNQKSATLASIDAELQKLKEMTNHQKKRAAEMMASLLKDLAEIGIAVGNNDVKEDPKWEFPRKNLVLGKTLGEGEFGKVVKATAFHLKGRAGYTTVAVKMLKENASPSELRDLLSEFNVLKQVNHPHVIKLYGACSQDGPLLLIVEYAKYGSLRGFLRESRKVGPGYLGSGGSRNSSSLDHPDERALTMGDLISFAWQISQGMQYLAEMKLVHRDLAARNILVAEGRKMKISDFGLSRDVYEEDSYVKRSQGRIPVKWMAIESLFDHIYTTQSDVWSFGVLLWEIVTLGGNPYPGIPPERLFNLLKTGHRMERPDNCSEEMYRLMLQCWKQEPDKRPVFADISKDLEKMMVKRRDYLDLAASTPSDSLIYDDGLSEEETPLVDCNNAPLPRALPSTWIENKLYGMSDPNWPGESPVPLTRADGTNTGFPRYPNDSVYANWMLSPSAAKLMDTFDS
The experiment in a line: case study, phase 1 monotherapy in a patient with KIF5B-RET fusion-positive NSCLC. It counts as in vivo. From the text: A person who was a former smoker presented in April 2009 for evaluation of a right pleural effusion. […] There was also no tumor in either the neck or thyroid on the CT scans. The patient was diagnosed as having stage IIIB (cT4N0M0, 6th edition of the International System for Staging Lung cancer) adenocarcinoma of the lung. […] Re-growth of primary tumor was, however, reported 8 months after the end of therapy. The patient subsequently received 13 cycles of docetaxel as second-line treatment and 2 cycles of an investigational drug (anti-HER2 [human epidermal growth factor receptor type2] antibody) as third-line treatment. […] Yamamoto, N., Nokihara, H., Wakui, H., Yamada, Y., Frye, J., DeCillis, A., and Tamura, T. A phase 1 multiple ascending dose study of cabozantinib (XL184) monotherapy in Japanese patients with advanced solid tumors. Molecular Cancer Therapeutics. 2011 10 suppl 1 (abstr C26) and Nokihara, H., Yamamoto, N., Nakamichi, S., Wakui, H., Yamada, Y., Frye, J., Decillis, A., and Tamura, T. in Annals of Oncology, Vol. 23, Supplement 9, published September 17, 2012.
In February 2012, they terminated cabozantinib monotherapy due to progressive disease.

A further data set deals with T2, RET (Homo sapiens, UniProt P07949, C634W).
T2 construct: endogenous in cells; host or cells: TT cells (human medullary thyroid carcinoma), in culture or as xenograft tumours in nu/nu mice
T2 sequence (P07949 29-1114 C634W): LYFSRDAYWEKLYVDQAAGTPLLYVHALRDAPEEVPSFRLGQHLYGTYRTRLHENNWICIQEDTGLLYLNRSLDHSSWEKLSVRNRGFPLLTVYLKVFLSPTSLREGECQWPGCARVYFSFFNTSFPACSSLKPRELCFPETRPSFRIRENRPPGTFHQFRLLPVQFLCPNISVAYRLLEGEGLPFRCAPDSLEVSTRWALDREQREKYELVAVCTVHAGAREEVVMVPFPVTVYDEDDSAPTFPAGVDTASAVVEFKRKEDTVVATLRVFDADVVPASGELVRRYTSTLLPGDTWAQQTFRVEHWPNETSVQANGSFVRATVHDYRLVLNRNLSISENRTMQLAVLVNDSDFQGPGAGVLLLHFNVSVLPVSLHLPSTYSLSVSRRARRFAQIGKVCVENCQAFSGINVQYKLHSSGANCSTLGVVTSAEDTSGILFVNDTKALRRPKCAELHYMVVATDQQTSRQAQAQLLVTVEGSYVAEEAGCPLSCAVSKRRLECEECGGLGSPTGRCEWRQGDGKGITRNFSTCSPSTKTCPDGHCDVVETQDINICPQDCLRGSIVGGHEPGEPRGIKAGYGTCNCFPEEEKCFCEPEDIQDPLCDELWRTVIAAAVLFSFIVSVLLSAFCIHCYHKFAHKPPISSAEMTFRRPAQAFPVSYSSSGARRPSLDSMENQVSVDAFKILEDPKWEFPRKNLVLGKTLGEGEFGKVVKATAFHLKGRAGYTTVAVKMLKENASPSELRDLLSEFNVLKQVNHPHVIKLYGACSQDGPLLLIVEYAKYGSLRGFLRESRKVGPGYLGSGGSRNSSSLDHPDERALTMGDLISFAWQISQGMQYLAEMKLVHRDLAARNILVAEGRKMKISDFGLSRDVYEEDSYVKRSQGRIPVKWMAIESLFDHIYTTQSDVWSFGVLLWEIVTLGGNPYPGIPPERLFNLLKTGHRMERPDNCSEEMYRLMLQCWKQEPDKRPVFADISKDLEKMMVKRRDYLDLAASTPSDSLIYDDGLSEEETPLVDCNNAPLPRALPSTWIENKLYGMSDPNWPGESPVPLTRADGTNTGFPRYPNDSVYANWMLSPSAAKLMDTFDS
The experiment in a line: phosphorylation of RET in TT xenograft tumors in vivo (Western immunoblot). The arrangement: species or system mice. For orientation: Immunoblotting shows a protein as a band on a membrane.

For data set [2] the following is noted: mouse, in vivo. How it is done: as §1
. Given that TT xenograft tumors are known to secrete high amounts of human calcitonin that correlates with tumor size, serum concentrations of circulating calcitonin were determined at the end of the dosing period. […]; P <0.005) at both the 30- and 60-mg/kg doses when compared to vehicle control animals, as depicted in FIG. 2B. Moreover, this reduction in circulating plasma calcitonin correlated with TT tumor growth inhibition described above. […]

In a further data set the test system is medullary thyroid cancer. The following applies: 25 of 37 patients with MTC; cited from earlier work.
A short description of data set [3]: plasma concentrations in TT xenograft study. It is filed as in vivo, nu/nu mice. As to conditions: 30- and 60-mg/kg doses, oral once daily.
For another data set, the target named is T3, KIF5B-RET (Homo sapiens, UniProt P07949).
T3 sequence (P07949 713-1063 limits assumed): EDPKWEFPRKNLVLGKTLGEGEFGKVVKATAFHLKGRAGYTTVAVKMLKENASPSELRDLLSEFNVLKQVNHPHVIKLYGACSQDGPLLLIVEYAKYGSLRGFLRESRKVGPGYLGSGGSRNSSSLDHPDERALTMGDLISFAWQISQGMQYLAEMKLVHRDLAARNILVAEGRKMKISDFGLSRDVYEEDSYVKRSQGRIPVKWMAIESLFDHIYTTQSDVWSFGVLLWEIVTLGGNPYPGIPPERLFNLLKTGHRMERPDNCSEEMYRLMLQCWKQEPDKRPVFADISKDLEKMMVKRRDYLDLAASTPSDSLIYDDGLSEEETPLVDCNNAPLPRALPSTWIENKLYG
As to conditions: in vitro studies; cited from earlier work.

On to `COc1cc2nccc(Oc3ccc(NC(=O)C4(C(=O)Nc5ccc(F)cc5)CC4)cc3)c2cc1OC` [Compound 1, N-(4-{[6,7-bis(methyloxy)quinolin-4-yl]oxy}phenyl)-N′-(4-fluorophenyl)cyclopropane-1,1-dicarboxamide], for which the “TT xenograft tumor growth” value in the data set with TT xenograft tumors (10- and 30-mg/kg doses) is “dose-dependent inhibition”. Also, the “TT xenograft tumor growth outcome” value in the data set with TT xenograft tumors (30- and 60-mg/kg doses) is listed as “stable disease”. Moreover, the “time of reduced phosphorylation levels of AKT and ERK post dose” value in the data set with AKT and ERK is 4 to 24 h. In addition, the “adverse event leading to drug interruptions” value in data set [1] (during 10 cycles (months) of therapy, without clinical symptoms of pancreatitis) was “grade 3 serum lipase elevations”. The “response of primary lung tumor on chest CT” value in data set [1] (starting dose 40 mg once a day, at 9 weeks, confirmed at 17 weeks) is “partial response”. Further, the tumor reduction in data set [1] (starting dose 40 mg once a day, chest CT at 9 weeks) is on record as 40.1%. In addition, the “time of inhibition of phosphorylation of RET post dose” value on RET (single 100-mg/kg oral dose) was 4 to 24 h. Further, the “time at which RET phosphorylation returned to basal levels” value at RET (single 100-mg/kg oral dose, after treatment) was at most 48 h. Besides, on RET (single ascending oral dose, tumors collected 4 h post dose), the “inhibition of phosphorylation of RET in tumors” value is “dose-dependent inhibition of phosphorylation of RET”. Also, the “tolerability (stable body weights)” value in data set [2] was “well tolerated”. Besides, the “patients with confirmed partial response or stable disease for 6 months or longer” value in the data set with medullary thyroid cancer is 68%. In addition, in data set [3], the “peak cyclical plasma concentrations” value was 3,000 to 45,000 nmol/L.
Consider `CNC(=O)c1cc(Oc2ccc(NC(=O)Nc3ccc(Cl)c(C(F)(F)F)c3)cc2)ccn1` [sorafenib], for which the “growth and signaling properties mediated by KIF5B-RET after treatment” value on KIF5B-RET is “diminished”.
